Test results as given in patent US5629296A, “9A-N-(N'-carbamoyl)and 9A-N-(N'-thiocarbamoyl) derivatives of 9-deoxo-9A-aza-9A-homoerythromycin A” (Pliva farmaceutiska, kemijska, prehrambena i kozmeticka …, priority 1993, dated 1997).
Converted amounts (≈) assume the structure as drawn.

Assays:
Test in all cases: MIC, dilution method on microplates (NCCLS M7-A2)
Type in all cases: cell-based
[1] = tested on: B. cererus ATCC 11778
Method: (§1) Minimum inhibitory concentrations (MIC, mcg/ml) are determined by dilution method on microplates according to the recommendation of National Committee for Clinical Laboratory Standards (NCCLS, M7-A2). It is evident from Table 1 that standard strains and clinical isolates tested are susceptible to newly synthetised compounds. Thus they may be used for disinfection of rooms, chirurgical instruments and humans and as therapeutic agents in the treatment of infective diseases in animals, especially mammals and humans, caused by a broad spectrum of Gram-positive bacteria, mycoplasmas and generally patogenic microorganisms that are susceptible to the compounds of the formula (I). To this purpose the above compounds and pharmaceutically acceptable acid addition salts thereof may be administered orally in usual doses from 0.2 mg/kg body weight daily to about 250 mg/kg/day, most preferably from 5-50 mg/kg/day, or parenterally in the form of subcutaneous and intramuscular injections.

[2] = tested on: Micrococcus flavus ATCC 10240; details: ATCC10240
Method: as §1

[3] = tested on: Bacillus subtilis NCTC 8236; details: NCTC8236
Method: as §1

[4] = tested on: B. pumilus NCTC 8241; details: Bacillus pumilus, NCTC8241
Method: as §1

[5] = tested on: Pseudomonas aeruginosa NCTC 10490; details: NCTC10490
Method: as §1

[6] = tested on: Esherichia coli ATCC 10536
Method: as §1

[7] = tested on: Staphylococcus aureus ATCC 6538P; details: ATCC6538P
Method: as §1

[8] = tested on: Staphylococcus epidermidis ATCC 12228; details: ATCC12228
Method: as §1

[9] = tested on: Salmonella Panama 6117; details: Salmonella enterica, PANAMA6117
Method: as §1

[10] = tested on: Streptococcus faecalis ATCC 8043; details: Enterococcus faecalis, ATCC8043
Method: as §1

[11] = tested on: BHS-A Streptococcus pyogenes J-21
Method: as §1

[12] = tested on: BHS-B Streptococcus Agalactiae J-22
Method: as §1

MIC [1] [µg/mL] | MIC [2] [µg/mL] | MIC [3] [µg/mL] | MIC [4] [µg/mL] | MIC [5] [µg/mL] | MIC [6] [µg/mL] | MIC [7] [µg/mL] | MIC [8] [µg/mL] | MIC [9] [µg/mL] | MIC [10] [µg/mL] | MIC [11] [µg/mL] | MIC [12] [µg/mL] | Compound
6.25 (≈ 7.62 µM) | 3.12 (≈ 3.8 µM) | 1.56 (≈ 1.9 µM) | 6.25 (≈ 7.62 µM) | 25 (≈ 30.5 µM) | 12.5 (≈ 15.2 µM) | 1.56 (≈ 1.9 µM) | 6.25 (≈ 7.62 µM) | 6.25 (≈ 7.62 µM) | 3.12 (≈ 3.8 µM) |  |  | CC[C@H]1OC(=O)[C@H](C)[C@@H](O[C@H]2C[C@@](C)(OC)[C@@H](O)[C@H](C)O2)[C@H](C)[C@@H](O[C@@H]2O[C@H](C)C[C@H](N(C)C)[C@H]2O)[C@](C)(O)C[C@@H](C)CN(C(=O)NC(C)C)[C@H](C)[C@@H](O)[C@]1(C)O [Example 1, 9-deoxo-9a-N-(N'-isopropyl-carbamoyl)-9a-aza-9a-homoerythromycin A]
3.12 (≈ 4.25 µM) | 1.56 (≈ 2.12 µM) | 12.5 (≈ 17 µM) | 12.5 (≈ 17 µM) | 25 (≈ 34 µM) | 3.12 (≈ 4.25 µM) | 3.12 (≈ 4.25 µM) | 3.12 (≈ 4.25 µM) | 3.12 (≈ 4.25 µM) | 3.12 (≈ 4.25 µM) | 3.12 (≈ 4.25 µM) | 1.56 (≈ 2.12 µM) | CC[C@H]1OC(=O)[C@H](C)[C@@H](O[C@H]2C[C@@](C)(OC)[C@@H](O)[C@H](C)O2)[C@H](C)[C@@H](O[C@@H]2O[C@H](C)C[C@H](N(C)C)[C@H]2O)[C@](C)(O)C[C@@H](C)CN[C@H](C)[C@@H](O)[C@]1(C)O [Example 9a-NH, 9-deoxo-9a-aza-9a-homoerythromycin A]

The next lines start with the compound.

Compound | MIC [1] [µg/mL] | MIC [2] [µg/mL] | MIC [3] [µg/mL] | MIC [4] [µg/mL] | MIC [5] [µg/mL] | MIC [6] [µg/mL] | MIC [7] [µg/mL] | MIC [8] [µg/mL] | MIC [9] [µg/mL] | MIC [10] [µg/mL] | MIC [11] [µg/mL] | MIC [12] [µg/mL]
CC[C@H]1OC(=O)[C@H](C)[C@@H](O[C@H]2C[C@@](C)(OC)[C@@H](O)[C@H](C)O2)[C@H](C)[C@@H](O[C@@H]2O[C@H](C)C[C@H](N(C)C)[C@H]2O)[C@](C)(O)C[C@@H](C)CN(C(=O)Nc2ccncc2)[C@H](C)[C@@H](O)[C@]1(C)O [Example 4, 9-deoxo-9a-N-[N'-(4-pyridyl)-carbamoyl]-9a-aza-9a-homoerythromycin A] | 12.5 (≈ 14.6 µM) | 12.5 (≈ 14.6 µM) | 25 (≈ 29.2 µM) | 12.5 (≈ 14.6 µM) | 50 (≈ 58.5 µM) | 12.5 (≈ 14.6 µM) | 12.5 (≈ 14.6 µM) | 25 (≈ 29.2 µM) | 25 (≈ 29.2 µM) | 6.25 (≈ 7.31 µM) | 12.5 (≈ 14.6 µM) | 12.5 (≈ 14.6 µM)
CC[C@H]1OC(=O)[C@H](C)[C@@H](O[C@H]2C[C@@](C)(OC)[C@@H](O)[C@H](C)O2)[C@H](C)[C@@H](O[C@@H]2O[C@H](C)C[C@H](N(C)C)[C@H]2O)[C@](C)(O)C[C@@H](C)CN(C(=O)Nc2ccccc2)[C@H](C)[C@@H](O)[C@]1(C)O [Example 5, 9-deoxo-9a-N-(N'-phenyl-carbamoyl)-9a-aza-9a-homoerythromycin A] | 12.5 (≈ 14.6 µM) | 6.25 (≈ 7.32 µM) | 6.25 (≈ 7.32 µM) | 6.25 (≈ 7.32 µM) | 50 (≈ 58.5 µM) | 12.5 (≈ 14.6 µM) | 6.25 (≈ 7.32 µM) | 3.12 (≈ 3.65 µM) | 25 (≈ 29.3 µM) | 3.12 (≈ 3.65 µM) | 3.12 (≈ 3.65 µM) | 1.56 (≈ 1.83 µM)
CC[C@H]1OC(=O)[C@H](C)[C@@H](O[C@H]2C[C@@](C)(OC)[C@@H](O)[C@H](C)O2)[C@H](C)[C@@H](O[C@@H]2O[C@H](C)C[C@H](N(C)C)[C@H]2O)[C@](C)(O)C[C@@H](C)CN(C(=O)NCc2ccccc2)[C@H](C)[C@@H](O)[C@]1(C)O [Example 6, 9-deoxo-9a-N-(N'-benzyl-carbamoyl)-9a-aza-9a-homoerythromycin A] | 6.25 (≈ 7.2 µM) | 3.12 (≈ 3.59 µM) | 3.12 (≈ 3.59 µM) | 3.12 (≈ 3.59 µM) | 50 (≈ 57.6 µM) | 25 (≈ 28.8 µM) | 3.12 (≈ 3.59 µM) | 6.25 (≈ 7.2 µM) | > 100 | 3.12 (≈ 3.59 µM) |  | 
CC[C@H]1OC(=O)[C@H](C)[C@@H](O[C@H]2C[C@@](C)(OC)[C@@H](O)[C@H](C)O2)[C@H](C)[C@@H](O[C@@H]2O[C@H](C)C[C@H](N(C)C)[C@H]2O)[C@](C)(O)C[C@@H](C)CN(C(=S)NCc2ccccc2)[C@H](C)[C@@H](O)[C@]1(C)O [Example 7, 9-deoxo-9a-N-(N'-benzyl-thiocarbamoyl)-9a-aza-9a-homoerythromycin A] | 6.25 (≈ 7.07 µM) | 1.56 (≈ 1.76 µM) | 1.56 (≈ 1.76 µM) | 1.56 (≈ 1.76 µM) | 50 (≈ 56.5 µM) | 12.5 (≈ 14.1 µM) | 3.12 (≈ 3.53 µM) | 6.25 (≈ 7.07 µM) | > 100 | 1.56 (≈ 1.76 µM) |  | 
